Data: patent publication US5721229A, “Soluble forms of cephalosporins and treatment of animals” (Veterinary Pharmacy Corporation, priority 1995, dated 1998)
Where two headings read alike, the source gives them in different places.

What was measured:
[1] = cited from earlier work
[2] = pH 4.5; cited from earlier work
all bacteria = experiment: Sensitivity results by the University Diagnostic Laboratory, all bacteria (Example 6 table)
Protocol: (§1) The mixture and solution of the invention was tested in 100 to 200 pound pigs. […] A 30 pig pen was used as a non-treated control group to measure the efficacy of the treatment.

[3] = tested on: Actinobacillis pleuropneumonia Type 7
Protocol: as §1

Protocol for Pasturella multocida: as §1
Description for Step suis type 2: A farm was selected which was known to have problems with Step suis type 2 in its nursery pigs. The experiment involved two groups of 30 pigs, each group was in the same room, but in separate pens. Each pig was individually tagged and a tonsilar swab was done on day one and day seven. Cultures were run on all the swabs.
Protocol for Streptococcus suis Sp.: as §1

CC1(C)S[C@@H]2[C@H](NC(=O)[C@H](N)c3ccccc3)C(=O)N2[C@H]1C(=O)O [ampicillin]
pH on dissolution with sodium carbonate ([1]; 95 mole-% of sodium carbonate): 8.3 | Mole-% of sodium carbonate sufficient to dissolve ([1]; pH 8.3): 95 mole-%

CC1=C(C(=O)O)N2C(=O)[C@@H](NC(=O)[C@H](N)c3ccccc3)[C@H]2SC1 [cephalexin monohydrate]
Neutrally charged fraction [2]: 100%

CC1=C(C(=O)O)N2C(=O)[C@@H](NC(=O)[C@H](N)c3ccccc3)[C@H]2SC1 [cephalexin, α-aminobenzyl-3-desacetoxycephalosporin]
Sensitivity to cephalexin (Streptococcus suis Sp.): showed sensitivity | Sensitivity of the organism (Step suis type 2; isolates from treated group): sensitive | Sensitivity of the organism (Step suis type 2; isolates from untreated control group): sensitive | Sensitivity results by the University Diagnostic Laboratory (all bacteria; control group of 30 pigs): sensitive to cephalexin | Sensitivity results by the University Diagnostic Laboratory (all bacteria; treated group of 970 pigs): sensitive to cephalexin | Sensitivity to cephalexin (Pasturella multocida): showed sensitivity | Sensitivity to cephalexin [3]: showed sensitivity

CC1(C)S[C@@H]2[C@H](NC(=O)[C@H](N)c3ccccc3)C(=O)N2[C@H]1C(=O)O [sodium ampicillin]
pH of aqueous solution ([1]; aqueous solution): ~9.5
